In paper PMC8037310, “Thrombin-Derived Peptides Potentiate the Activity of Gram-Positive-Specific Antibiotics against Gram-Negative Bacteria” (Molecules, 2021):
Converted amounts (≈) assume the structure as drawn. Read-outs that look alike come from different tables or passages of the source. Peptide text beside a SMILES is read from it.

Legend:
P. aeruginosa ATCC27853 = assay: Checkerboard assay with rifampicin; type: cell-based, Pseudomonas aeruginosa; settings: for MICpeptide: peptide alone; for MICpeptide / MSCpeptide / MSCrif: P. aeruginosa ATCC27853; for MSCpeptide: peptide concentration in the combination with rifampicin giving the lowest FICi; for MSCrif: rifampicin concentration in the combination giving the lowest FICi; for FICi: with rifampicin vs P. aeruginosa ATCC27853, synergy defined as FICi ≤ 0.5
Method: All peptides were screened for antimicrobial activity against E. coli BW25113, E. coli ATCC25922, and E. coli W3110. A select group of the peptides was further tested against E. coli mcr-1, E. coli EQASmcr-1 (EQAS 2016 412016126), E. coli EQASmcr-2 (EQAS 2016 KP37), E. coli EQASmcr-3 (EQAS 2017 2013-SQ352), K. pneumoniae ATCC13883, P. aeruginosa ATCC27853, and A. baumannii ATCC17978. The antimicrobial assay was performed according to CLSI guidelines. Bacteria were plated out directly from their glycerol stocks on blood agar plates, incubated overnight at 37 °C, and then kept in the fridge. The blood agar plates were only used for 2 weeks and then replaced.
(§1) One colony from a blood agar plates was inoculated in Lysogeny Broth (LB) at 37 °C until a 0.5 optical density at 600 nm (OD600) was reached (compared to the sterility control of LB). The bacterial suspension was diluted in fresh LB to 2.0 × 10^6 CFU/mL. The serial dilutions were prepared in polypropylene microtiter plates: a stock of the test compounds was prepared with a 2x final concentration in LB. Moreover, 100 µL of the stock was added to the wells of the top row of which 50 µL was used for the serial dilution. The bottom row of each plate was used as the positive (50 µL of LB) and negative controls (100 µL of LB) (6 wells each). Furthermore, 50 µL of the 2.0 × 10^6 CFU/mL bacterial stock was added to each well except for the negative controls, adding up to a total volume of 100 µL per well. The plates were sealed with a breathable seal and incubated for 20 h at 37 °C and 600 rpm.
Two 96-well plates were required per compound. A serial dilution of the compound was performed on two plates from row A–G using with LB as medium. Row H was filled with 25 µL medium. On a separate plate a negative control (8 wells, 100 μL medium) was prepared. For all concentrations of antibiotic a specific stock was prepared. 25 µL medium was added to the 0 µg/mL antibiotic columns (plate I, column 1–3). Of each antibiotic stock 25 µL was added to three columns to obtain triplicates for every condition. Both plates contained 50 µL in each well to which 50 µL bacterial stock was added (see the protocol of the MIC assays) and the plates were sealed. After incubation for 20 h at 37 °C while shaking, the breathable seals were removed and the density of the bacterial suspensions measured at 600 nm (OD600) using a Tecan Spark plate reader. The OD600 values were transformed to a 2D gradient with the negative control as minimum and the positive control (wells G1, G2, and G3) as maximum in excel. The FICi was calculated using Equation (1) with a FICi ≤ 0.5 indicating synergy. FICi = (MSCa/MICa) + (MSCb/MICb),(1)
Calculation of the FICi: MSCa = concentration of the […] in combination with the antibiotic that results in the lowest FICi. MICa = MIC of the antibiotic without synergist (row G). MSCb = concentration of the synergist in combination with the antibiotic that results in the lowest FICi. MICb = MIC of the synergist itself (Column 1–3, plate I).

E. coli ATCC25922 = type: cell-based, Escherichia coli; settings: for FICi: ATCC25922, 20 h; for MICpeptide: peptide alone; for MICpeptide / MSCpeptide / MSCrif: E. coli ATCC25922; for MSCpeptide: peptide concentration in the combination with rifampicin giving the lowest FICi; for MSCrif: rifampicin concentration in the combination giving the lowest FICi
Procedure, shortened: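 Checkerboard of peptide serial dilutions against rifampicin concentrations in triplicate, in LB with 1.0 × 10^6 CFU/mL final inoculum after mixing the 2.0 × 10^6 CFU/mL stock 1:1, 20 h at 37 °C shaking. OD600 read; FICi = MSCa/MICa + MSCb/MICb, ≤0.5 taken as synergy.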

E. coli W3110 = type: cell-based, Escherichia coli; settings: for MICpeptide: peptide alone; for MICpeptide / MSCpeptide / MSCrif: E. coli W3110; for MSCpeptide: peptide concentration in the combination with rifampicin giving the lowest FICi; for MSCrif: rifampicin concentration in the combination giving the lowest FICi
[1] = test system: E. coli EQASmcr-2 (EQAS 2016 KP37); type: cell-based, Escherichia coli; settings: for MICpeptide: peptide alone; for MICpeptide / MSCpeptide / MSCrif: E. coli EQASmcr-2; for MSCpeptide: peptide concentration in the combination with rifampicin giving the lowest FICi; for MSCrif: rifampicin concentration in the combination giving the lowest FICi
E. coli BW25113 = assay: LPS competition assay; type: cell-based, Escherichia coli; settings: E. coli BW25113, LB, 20 h 37 °C, visual read-out
Method: as §1
The same protocol as the MIC assay was used to prepare the serial dilution of the compounds in 96-wells plates in duplicate resulting in two identical plates. A serial dilution of colistin was taken along as a control. The inoculation and preparation of the bacteria stock was performed as described for the MIC assay. The stock of bacteria was then split into two stocks. […] The normal bacteria stock was added to the remaining plate as described in the MIC assay.

[2] = with rifampicin vs E. coli W3110, synergy defined as FICi ≤ 0.5
[3] = EQASmcr-2 (EQAS 2016 KP37, 20 h)

Row | SMILES | MICpeptide (P. aeruginosa ATCC27853) [µg/mL] | MSCpeptide (P. aeruginosa ATCC27853) [µg/mL] | MSCrif (P. aeruginosa ATCC27853) [µg/mL] | FICi (P. aeruginosa ATCC27853) | FICi (E. coli ATCC25922) | MICpeptide (E. coli ATCC25922) [µg/mL] | MSCpeptide (E. coli ATCC25922) [µg/mL] | MSCrif (E. coli ATCC25922) [µg/mL] | MICpeptide (E. coli W3110) [µg/mL] | MSCpeptide (E. coli W3110) [µg/mL] | MSCrif (E. coli W3110) [µg/mL] | FICi (E. coli W3110; [2]) | FICi [1, 3] | MICpeptide [1] [µg/mL] | MSCpeptide [1] [µg/mL] | MSCrif [1] [µg/mL] | MIC + 1.0 mg/ml LPS (E. coli BW25113; in the presence of 1 mg/mL LPS) [µg/mL] | MIC (E. coli BW25113; without LPS) [µg/mL] | FICi (E. coli W3110; W3110, 20 h) | FICi ([1]; with rifampicin vs E. coli EQASmcr-2)
1 | CC[C@H](C)[C@H](NC(=O)[C@@H](NC(=O)[C@H](CCCCN)NC(=O)[C@H](CCC(N)=O)NC(=O)[C@@H](NC(=O)[C@H](Cc1c[nH]c2ccccc12)NC(=O)[C@H](CCCCN)NC(=O)[C@H](CCCCN)NC(=O)[C@H](CC(C)C)NC(=O)[C@H](C)NC(=O)[C@H](Cc1ccccc1)NC(=O)[C@@H](N)C(C)C)[C@@H](C)CC)C(C)C)C(N)=O [peptide 10] (H-VFALKKWIQKVI-NH2) | > 200 | 100 | 4 | 0.2500 | 0.0313 | > 200 | 6.25 | 0.063 | 25 | 12.5 | 0.125 | > 0.5 | 0.1406 | 100 | 12.5 | 0.125 | – | – | – | –
2 | CC[C@H](C)[C@H](NC(=O)[C@@H](NC(=O)[C@H](CCCCN)NC(=O)[C@H](CCC(N)=O)NC(=O)[C@@H](NC(=O)[C@H](Cc1c[nH]c2ccccc12)NC(=O)[C@H](CCCCN)NC(=O)[C@H](CCCCN)NC(=O)[C@H](CC(C)C)NC(=O)[C@H](CCCNC(=N)N)NC(=O)[C@H](Cc1ccccc1)NC(=O)[C@@H](N)C(C)C)[C@@H](C)CC)C(C)C)C(N)=O [peptide 6] (H-VFRLKKWIQKVI-NH2) | 50 | 25 | 1 | > 0.5 | 0.0469 | 200 | 6.25 | 0.063 | 6.25 | 3.125 | 0.125 | > 0.5 | 0.0938 | 100 | 6.25 | 0.25 | 200 | 12.5 (≈ 8.03 µM) | – | –
3 | CC[C@H](C)[C@H](NC(=O)[C@@H](NC(=O)[C@H](CCCCN)NC(=O)[C@H](CCC(N)=O)NC(=O)[C@@H](NC(=O)[C@H](C)NC(=O)[C@H](CCCCN)NC(=O)[C@H](CCCCN)NC(=O)[C@H](CC(C)C)NC(=O)[C@H](CCCNC(=N)N)NC(=O)[C@H](Cc1ccccc1)NC(=O)[C@@H](N)C(C)C)[C@@H](C)CC)C(C)C)C(N)=O [peptide 14] (H-VFRLKKAIQKVI-NH2) | > 200 | 50 | 0.5 | – | 0.0313 | > 200 | 6.25 | 0.063 | > 200 | 50 | 0.5 | – | 0.0938 | > 200 | 25 | 0.25 | – | – | 0.1875 | –
4 | CC[C@H](C)[C@H](NC(=O)[C@H](Cc1c[nH]c2ccccc12)NC(=O)[C@H](CCCCN)NC(=O)[C@H](CCCCN)NC(=O)[C@H](CC(C)C)NC(=O)[C@H](CCCNC(=N)N)NC(=O)[C@H](Cc1ccccc1)NC(=O)[C@@H](N)C(C)C)C(=O)N[C@@H](CCC(N)=O)C(=O)N[C@@H](CCCCN)C(=O)N[C@H](C(=O)N[C@@H](C)C(N)=O)C(C)C [peptide 19] (H-VFRLKKWIQKVA-NH2) | 100 | 25 | 0.25 | – | 0.0313 | > 200 | 6.25 | 0.063 | 100 | 3.125 | 0.5 | – | – | 200 | 12.5 | 0.5 | – | – | 0.0782 | 0.1250
